Columns and labels:
skin = experiment: Clinical evaluations of the hexapeptide complex: moisture content; format: in vivo; settings: after 15 minutes of use
From the text: (§1) The combination of ingredients of the skin care compositions of the present invention are believed to provide synergistic benefits which are otherwise not available with any one of the components used by itself. Clinical evaluations based on the use of the hexapeptide complex itself evidenced a reduction in fine lines and wrinkles, including laugh lines, frown lines, and smile lines, by approximately 13% after 2 weeks and approximately 33% in 4 weeks of use. It was further observed that 100% of participants experienced a reduction in under-eye fine lines and wrinkles on the average of approximately 16% after 4 weeks and approximately 52% after 8 weeks of use. Additionally, an increase in moisture content by 37% after 15 minutes of use was observed.

fine lines and wrinkles = experiment: Clinical evaluations of the hexapeptide complex: fine lines and wrinkles; format: in vivo
From the text: as §1

With “acetyl hexapeptide-3 [hexapeptide complex]” the “increase in moisture content” value (skin) was 37%, the “reduction in fine lines and wrinkles, including laugh lines, frown lines, and smile lines” value (fine lines and wrinkles; after 2 weeks) was “approximately 13%” and the “average reduction in under-eye fine lines and wrinkles” value (fine lines and wrinkles; after 4 weeks) was “approximately 16%”. The “average reduction in under-eye fine lines and wrinkles” value (fine lines and wrinkles; after 8 weeks of use) was “approximately 52%”, the “reduction in fine lines and wrinkles, including laugh lines, frown lines, and smile lines” value (fine lines and wrinkles; in 4 weeks of use) was “approximately 33%” and the “participants who experienced a reduction in under-eye fine lines and wrinkles” value (fine lines and wrinkles; in vivo) was 100%.
